# In publication PMC6445240, “Design, synthesis and evaluation of ^18F-labeled cationic carbonic anhydrase IX inhibitors for PET imaging” (Journal of Enzyme Inhibition and Medicinal Chemistry, 2017):
# Where a name gives a salt, the structure may show the parent alone.
# Tests used:
# CA-I = CA-I (Homo sapiens, UniProt P00915); test: stopped-flow CO2 hydration assay, CA-I; format: biochemical; settings: errors 5–10% from three assays, read-out: Inhibition constant (Ki) CA-I
# CA-II = CA-II (Homo sapiens, UniProt P00918); test: stopped-flow CO2 hydration assay, CA-II; format: biochemical; settings: errors 5–10% from three assays, read-out: Inhibition constant (Ki) CA-II
# CA-IV = CA-IV (Homo sapiens, UniProt P22748); test: stopped-flow CO2 hydration assay, CA-IV; format: biochemical; settings: errors 5–10% from three assays, read-out: Inhibition constant (Ki) CA-IV
# CA-IX = CA-IX (Homo sapiens, UniProt Q16790); test: stopped-flow CO2 hydration assay, CA-IX; format: biochemical; settings: errors 5–10% from three assays, read-out: Inhibition constant (Ki) CA-IX
# Sequence of CA-I (P00915 whole entry): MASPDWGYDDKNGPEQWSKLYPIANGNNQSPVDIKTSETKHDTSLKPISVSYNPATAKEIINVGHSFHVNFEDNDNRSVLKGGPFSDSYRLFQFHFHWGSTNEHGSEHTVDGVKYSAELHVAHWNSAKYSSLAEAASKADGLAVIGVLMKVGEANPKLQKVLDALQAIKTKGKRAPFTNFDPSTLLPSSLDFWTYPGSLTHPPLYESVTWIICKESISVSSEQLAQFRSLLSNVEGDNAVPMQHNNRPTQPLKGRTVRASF
# Sequence of CA-IV (P22748 19-312): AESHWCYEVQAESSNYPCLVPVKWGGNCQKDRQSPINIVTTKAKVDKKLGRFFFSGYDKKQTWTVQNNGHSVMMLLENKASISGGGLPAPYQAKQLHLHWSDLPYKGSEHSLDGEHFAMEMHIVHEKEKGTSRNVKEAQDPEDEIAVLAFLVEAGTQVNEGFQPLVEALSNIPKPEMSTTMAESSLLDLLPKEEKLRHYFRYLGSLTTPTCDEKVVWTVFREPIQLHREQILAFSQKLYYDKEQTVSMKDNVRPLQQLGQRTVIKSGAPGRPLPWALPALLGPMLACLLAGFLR
Structure (SMILES),melting point,Ki (CA-I),Ki (CA-II),Ki (CA-IV),Ki (CA-IX)
"C[N+](C)(Cc1ccc(F)cc1)Cc1ccc(C(=O)NCCc2ccc(S(N)(=O)=O)cc2)cc1 (as salt: bromide) [Compound 2, N-4-[[[2-[4-(aminosulfonyl)phenyl]ethyl]amino]carbonyl]benzyl-N,N-dimethyl-4-fluorobenzylammonium bromide]",215 °C,,,,
"C[N+](C)(Cc1ccc(F)cc1)Cc1ccc(C(=O)NCc2ccc(S(N)(=O)=O)cc2)cc1 (as salt: bromide) [Compound 3, N-4-[[[4-(aminosulfonyl)benzyl]amino]carbonyl] benzyl-N,N-dimethyl-4-fluorobenzylammonium bromide]",228 °C,,,,
"C[N+](C)(Cc1ccc(F)cc1)Cc1ccc(C(=O)NCc2ccc(S(N)(=O)=O)cc2)cc1 [Compound 3, N-4-[[[4-(aminosulfonyl)benzyl]amino]carbonyl] benzyl-N,N-dimethyl-4-fluorobenzylammonium bromide]",,0.78 µM,0.48 µM,3.63 µM,0.96 µM
"C[N+](C)(Cc1ccc(F)cc1)Cc1ccc(C(=O)NCCc2ccc(S(N)(=O)=O)cc2)cc1 [Compound 2, N-4-[[[2-[4-(aminosulfonyl)phenyl]ethyl]amino]carbonyl]benzyl-N,N-dimethyl-4-fluorobenzylammonium bromide]",,0.52 µM,0.07 µM,9.54 µM,0.22 µM

# Results, then the compound that gave them:
melting point,Ki (CA-I),Ki (CA-II),Ki (CA-IV),Ki (CA-IX),Structure (SMILES)
,0.89 µM,0.72 µM,> 50 µM,0.44 µM,"C[N+](C)(Cc1ccc(F)cc1)Cc1ccc(C(=O)NCc2cccc(S(N)(=O)=O)c2)cc1 [Compound 1, N-4-[[[3-(aminosulfonyl)benzyl]amino]carbonyl] benzyl-N,N-dimethyl-4-fluorobenzylammonium bromide]"
226 °C,,,,,"C[N+](C)(Cc1ccc(F)cc1)Cc1ccc(C(=O)NCc2cccc(S(N)(=O)=O)c2)cc1 (as salt: bromide) [Compound 1, N-4-[[[3-(aminosulfonyl)benzyl]amino]carbonyl] benzyl-N,N-dimethyl-4-fluorobenzylammonium bromide]"
